Patent publication US20020115663A1, “Novel compounds” (priority 2000, published 2002)

Biological target: Human PTP1B (Homo sapiens, UniProt P18031)
Details: 2 mM, control wells
Procedure: Human PTP1B (amino acid residues 1-298, cloned from a human placental library), without the GST tag and thrombin cleavage site, was inserted into a pMB replicon and transformed into E. coli BL21 (DE3), a strain containing a chromosomal copy of the gene for T7 RNA polymerase under control of a lacUV5 promoter. Expression of PTP1B was induced with isopropyl thiogalactose and cells were lysed in lysis buffer comprising 50 mM Tris-HCl pH 7.5, 10% glycerol, 1 mM EDTA, 3 mM DTT, 3 mM MgCl2, and 0.2 mg/ml lysozyme with 1 mg/ml DNAse I. The soluble protein was purified by ion exchange, hydrophobic interaction and gel exclusion chromatography for use in assays to identify PTP1B inhibitors. […] Recombinant proteins were stored at −70° C. until used.
Human PTP1B activity was measured using p-nitrophenol phosphate (pNPP) as substrate in a 96-well microtiter plate format. An assay pH of 7.2 is used for standard assays (measured extinction coefficient =9800 at pH 7.2).
Standard assays were conducted at room temperature in a total volume of 0.2 ml that contains Hepes buffer (50 mM, pH 7.2), NaCl (50 mM), EDTA (1 mM), DTT (1 mM), bovine serum albumin (1 mg/ml), pNPP (1.25 mM) and PTP1B (500 ng/ml, 13.5 nM). […] The OD^405 was subsequently measured. […]

Chain of Human PTP1B (P18031 1-298): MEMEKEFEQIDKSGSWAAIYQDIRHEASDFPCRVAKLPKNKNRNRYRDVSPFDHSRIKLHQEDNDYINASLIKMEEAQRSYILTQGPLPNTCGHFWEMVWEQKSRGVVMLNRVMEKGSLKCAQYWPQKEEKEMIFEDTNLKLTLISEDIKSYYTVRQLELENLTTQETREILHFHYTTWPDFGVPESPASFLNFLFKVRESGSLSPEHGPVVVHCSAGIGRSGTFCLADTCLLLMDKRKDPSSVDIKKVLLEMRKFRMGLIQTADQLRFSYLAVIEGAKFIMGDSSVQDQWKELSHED

[Na+].[Na+].[Na+].[O]=[V]([O-])([O-])[O-] [sodium orthovanadate]
inhibition of PTP1B-catalyzed hydrolysis of pNPP: completely
